Data taken from publication PMC10675077, “Antimicrobial Properties of New Polyamines Conjugated with Oxygen-Containing Aromatic Functional Groups” (Molecules, 2023).
Values after ≈ are worked out from the molar mass of the structure shown. Like-named read-outs stand apart in the source and are kept apart here.

How the values were obtained:
[1] = tested on: Escherichia coli JM101; assay: MIC, microdilution in culture medium, E. coli; format: cell-based; conditions: Escherichia coli, read-out: MIC, Bacteria, E. coli JM101
Text: (§1) The microorganisms used for the susceptibility tests were the bacteria Escherichia coli JM101 and Staphylococcus aureus BHI, and the yeast Saccharomyces cerevisiae strains BY4741 (MAT a his3Δ1 leu2Δ0 met15Δ0 ura3Δ0 (EUROSCARF)) carrying YEplac195 (from EUROSCARF) or YEPlac195-PDR5 (provided by Ayse Banu Demir, Izmir University of Economics, Turkey) plasmids.
(§2) Bacterial strains were usually maintained and grown in an LB medium (0.5% (w/v) yeast extract, 1% (w/v) bactotryptone, and 1% (w/v) NaCl) at 37 °C. For MIC (minimal inhibitory concentration) and MMC (minimal microbicidal concentration) assays, and for the determination of synergies, overnight growth was carried out in 2% (w/v) bactopeptone (BP), and then the cultures were diluted and incubated for several hours in 2% (w/v) BP for ensuring logarithmic growth. Yeast strains were grown in an SC-ura medium (0.17% (w/v) yeast nitrogen base without amino acids and ammonium sulphate, 0.2% (w/v) drop-out without uracil, 0.5% (w/v) (NH4)2SO4, and 2% (w/v) glucose) at 30 °C. Liquid cultures were incubated with shaking (200 rpm). Solid media also contained 2% (w/v) agar.
(§3) For the analysis of the antimicrobial activity, the strategies and indications of Cushnie et al. were considered. The standardised method of microdilution in a culture medium was followed to determine the MIC [55]. In bacterial strains, serial dilutions of the compounds to be tested and the control antibiotics were prepared in phosphate buffer (20 mM, pH 7.4, 0.5 mL) and were mixed with a suspension of bacterial cells in a logarithmic growth phase (in 1% BP, 0.5 mL). The final OD600 of the whole solutions were 0.004 and 0.008 for E. coli and S. aureus cultures, respectively. After 20 h of incubation at 37 °C with shaking, the MIC was determined as the lowest concentration of each compound in which no visible bacterial growth was observed.

[2] = tested on: Staphylococcus aureus BHI; assay: MIC, microdilution in culture medium, S. aureus; format: cell-based; conditions: Staphylococcus aureus, 20 h, read-out: MIC, Bacteria, S. aureus BHI
Text: as §1, §2, §3

[3] = tested on: Saccharomyces cerevisiae BY4741/YEplac195-PDR5; assay: microbe, parasite or virus in culture; format: cell-based; conditions: Saccharomyces cerevisiae, 24 h, read-out: MIC, Yeast, BY4741/ PDR5
Text: as §1, §2
(§4) The determination of the MIC for yeast strains was carried out following a similar procedure to that of the polyamines and antifungal reference agents: Serial dilutions of each one in phosphate buffer (20 mM, pH 7.4, 0.5 mL) were prepared and mixed with a suspension of yeast cells (OD600 0.04 in SC-ura 2X (VWR, Atlanta, GA, USA), 0.5 mL). […] Experiments were carried out at least three times in all cases.

[4] = tested on: Saccharomyces cerevisiae BY4741/YEplac195; assay: microbe, parasite or virus in culture; format: cell-based; conditions: Saccharomyces cerevisiae, 24 h, read-out: MIC, Yeast, BY4741/ YEplac195
Text: as §1, §2, §4

[5] = Potentiometric titrations in water (protonation constants); format: physicochemical; conditions: for log β (cumulative protonation constant): calculated as log β = ∑j log KHjL; for n, average number of positive charges at pH 7.4: calculated from protonation constants
Protocol: The potentiometric titrations were carried out at 298.1 ± 0.1 K using NaCl 0.15 M as a supporting electrolyte. The experimental procedure (burette, potentiometer, cell, stirrer, microcomputer, etc.) has been fully described elsewhere. The acquisition of the EMF data was performed with the computer program PASAT [50]. The reference electrode was a Ag/AgCl electrode in a saturated KCl solution. The glass electrode was calibrated as a hydrogen-ion concentration probe via the titration of previously standardised amounts of HCl with CO2-free NaOH solutions and the equivalent point determined using the Gran method, which provides the standard potential, E^θ′, and the ionic product of water (pKw = 13.73(1)).
The computer program […] was used to calculate the protonation constants. The pH range investigated was 2.5–11.0, and the concentration of the ligands ranged from 5 × 10^−4 to 5 × 10^−[…]. The different titration curves for each system (at least two) were treated either as a single set or as separated curves without significant variations in the values of the stability constants. Finally, the sets of data were merged and treated simultaneously to give the final stability constants.

[6] = tested on: Yeast (S. cerevisiae strains); assay: MIC, yeast (strain not specified); format: cell-based, Saccharomyces cerevisiae; conditions: Saccharomyces cerevisiae; yeast strain not specified (Tables 5 and 10); read-out: MIC Yeast
Protocol: as §4

[7] = tested on: E. coli JM101; assay: Minimal bactericidal concentration, E. coli; format: cell-based, Escherichia coli; conditions: Escherichia coli, JM101; overnight incubation, plating on LB; bacteriostatic if growth at 4 times the MIC
Protocol: (§5) Once the MIC was known, the samples were prepared as described in the previous section with polyamine concentrations corresponding to the MIC and half, double, and four times its value. After overnight incubation with the microorganisms, 30 μL of a ten-fold dilution of each one was spread in LB (in the case of bacterial strains) or SC-ura (for yeast strains) plates. They were incubated for 20 h at 37 °C (bacteria) or 48 h at 30 °C (yeasts), and the level of growth was determined. […] Experiments were carried out at least three times.

[8] = Cytotoxicity, flow cytometry viability assay with propidium iodide; format: cell-based, human; conditions: human, Jurkat cells (human lymphocytic leukaemia, ATCC TIB-152), 24 h treatment, average of three experiments, read-out: IC50, cytotoxicity on the human Jurkat cell line
Protocol: The cytotoxicity of the compounds was assessed via flow cytometry with a viability assay using propidium iodide (PI), a DNA-binding fluorescent probe not permeant to live cells, which is commonly used to detect dead cells in a population. The human lymphocytic leukaemia Jurkat cell line (ATCC TIB-152) was obtained from the American Type Cell Culture (Sigma-Aldrich) and grown in suspension in an RPMI 1640 medium (Thermo Fisher Scientific, Waltham, MA, USA) supplemented with L-glutamine, antibiotics, and 10% heat-inactivated foetal calf serum (FCS, Thermo Fisher Scientific, Waltham, MA, USA). For the viability assay, cells were seeded in plastic 96-well plates at […] in an RPMI 1640 medium supplemented with 5% FCS. The cells were treated for 24 h with a range of concentrations of the test compounds or with the same volume of phosphate buffer (PBS) in control wells. After incubation, cell suspensions were washed, resuspended in 400 μL fresh medium, and incubated for 5 min at room temperature in the dark with 3.75 μM PI (Sigma-Aldrich). Cell viability was determined via flow cytometry using a Gallios flow cytometer (Beckman Coulter). PI fluorescence was excited with an argon-ion laser at 488 nm and collected through a 620/630 nm band-pass emission. Cellular events were discriminated from debris using forward scatter (FS) and side scatter (SS) signals. Cell aggregates were excluded from analysis based on FS-integral and FS-peak. The gates applied for population discrimination were set manually based on control samples. For each sample, 10,000 events were collected. For further analysis, the cytometric data were exported to Kaluza 2.1 software (Beckman Coulter, Brea, CA, USA). Dead cells were identified and quantified as PI-positive events. The cytotoxic potency of test compounds was quantified using their IC50 values, i.e., the compound concentration at which cell viability is inhibited by 50%, as calculated via curve fitting and determined with the correlation coefficient (R2) using GraphPad Prism 9.0 software. Experiments were carried out in triplicate.

[9] = tested on: S. aureus BHI; assay: Minimal bactericidal concentration, S. aureus; format: cell-based, Staphylococcus aureus; conditions: Staphylococcus aureus; overnight incubation, plating on LB
Protocol: as §5

[10] = 298 K, 0.15 mol/dm^3 NaCl, error in last figure in parentheses
[11] = JM101, 20 h, 37 °C, average of at least three experiments
[12] = 37 °C, average of at least three experiments
[13] = 30 °C, average of at least three experiments

Structure (SMILES)	MIC [3] [µg/mL]	MIC [1, 11] [µg/mL]	MIC [2, 12] [µg/mL]	MIC [4, 13] [µg/mL]	other results
c1ccc2c(c1)OCO2 [1,3-Benzodioxole, reference compound]	> 500	–	–	–	MIC ([1]; JM101, 20 h): > 500 µg/mL; MIC [2]: > 500 µg/mL; MIC [4]: > 500 µg/mL
c1cc2c(cc1CNCCCCNCCCNCc1ccc3c(c1)OCO3)OCO2 [Compound 1a, N^1-(benzo[d][1,3]dioxol-5-ylmethyl)-N^4-(3-((benzo[d][1,3]dioxol-5-ylmethyl)amino)propyl)butane-1,4-diamine]	> 400	50	150	> 400	Stepwise protonation constant (log K), H2L + H ⇄ H3L [5, 10]: 7.699 (2); Stepwise protonation constant (log K), L + H ⇄ HL [5, 10]: 10.433 (2); Stepwise protonation constant (log K), LH + H ⇄ H2L [5, 10]: 8.964 (2); log β (cumulative protonation constant) ([5]; 298 K, 0.15 mol/dm^3 NaCl): 27.09; n, average number of positive charges at pH 7.4 [5]: 2.7; MIC [6]: > 400 µg/mL; MBC [7]: 100 µg/mL (≈ 242 µM); IC50 at 24 h [8]: 11.4 µg/mL (≈ 27.6 µM)
O=C(O)c1cn(C2CC2)c2cc(N3CCNCC3)c(F)cc2c1=O [Ciprofloxacin, reference compound]	–	0.04	0.1	–	–
CNC(C)C1CCC(N)C(OC2C(N)CC(N)C(OC3OCC(C)(O)C(NC)C3O)C2O)O1 (stereo not shown) [Gentamicin, reference compound]	–	0.02	0.04	–	–
c1cc2c(cc1CNCCCNCCCCNCCCNCc1ccc3c(c1)OCO3)OCO2 [Compound 2a, N^1,N^1′-(butane-1,4-diyl)bis(N^3-(benzo[d][1,3]dioxol-5-ylmethyl)propane-1,3-diamine)]	250	10	50	250	Stepwise protonation constant (log K), H2L + H ⇄ H3L [5, 10]: 8.245 (7); Stepwise protonation constant (log K), H3L + H ⇄ H4L [5, 10]: 7.41 (1); Stepwise protonation constant (log K), L + H ⇄ HL [5, 10]: 10.81 (3); Stepwise protonation constant (log K), LH + H ⇄ H2L [5, 10]: 9.481 (8); log β (cumulative protonation constant) ([5]; 298 K, 0.15 mol/dm^3 NaCl): 35.94; n, average number of positive charges at pH 7.4 [5]: 3.4; MIC [6]: 250 µg/mL (≈ 531 µM); MBC [7]: 20 µg/mL (≈ 42.5 µM); MBC [9]: 100 µg/mL (≈ 212 µM); IC50 at 24 h [8]: 8.8 µg/mL (≈ 18.7 µM)
NCCCNCCN(CCNCCCN)CCNCCCN [Compound 4b]	> 400	400	250	> 400	–
C[C@@H]1C[C@@H]([C@H](O)CC2CC(=O)NC(=O)C2)C(=O)[C@@H](C)C1 [Cycloheximide, reference compound]	0.5	–	–	–	MIC [4]: 0.5 µg/mL
c1cc2c(cc1CNCCN(CCNCc1ccc3c(c1)OCO3)CCNCc1ccc3c(c1)OCO3)OCO2 [Compound 3a, N^1-(benzo[d][1,3]dioxol-5-ylmethyl)-N^2,N^2-bis(2-((benzo[d][1,3]dioxol-5-ylmethyl)amino)ethyl)ethane-1,2-diamine]	> 400	25	15	> 400	Stepwise protonation constant (log K), H2L + H ⇄ H3L [5, 10]: 6.93 (3); Stepwise protonation constant (log K), L + H ⇄ HL [5, 10]: 9.12 (2); Stepwise protonation constant (log K), LH + H ⇄ H2L [5, 10]: 8.35 (3); n, average number of positive charges at pH 7.4 [5]: 2.1; MIC [6]: > 400 µg/mL; MBC [7]: 50 µg/mL (≈ 91.1 µM); MBC [9]: 30 µg/mL (≈ 54.7 µM); IC50 at 24 h [8]: 1.86 µg/mL (≈ 3.39 µM)
NCCN(CCN)CCN [Compound 3b, reference compound]	> 400	250	400	> 400	–
NCCCCNCCCN [Compound 1b, spermidine, reference compound]	> 400	400	> 400	> 400	–
NCCCNCCCCNCCCN [Compound 2b, spermine, reference compound]	> 400	100	400	–	MIC [4]: > 400 µg/mL
